Assay results: ChEMBL document CHEMBL5665443, “Enzyme Inhibitor Single Concentration assay results for EUbOPEN Chemogenomics Library” (2024)
Where a SMILES comes first, the peptide text is derived from it. [ ]: non-standard residue; d: D form. Arg(Me) = CNC(=N)NCCC[C@H](N)C(=O)O; d3Pal = N[C@H](Cc1cccnc1)C(=O)O; azaGly = NNC(=O)O

Columns and labels:
Conditions in all cases: Hit No
[1] = target: Methyl-CpG-binding domain protein 4 (Homo sapiens) (UniProt O95243);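 further: MBD4 activity read as fluorescence at 594 nm from cleavage and release of a quenched duplex DNA oligonucleotide, with APE1 coupled to incise the strand and raise turnover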
[2] = target: T1, Adenine DNA glycosylase (Homo sapiens) (UniProt Q9UIF7);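 further: human MUTYH activity read as 594 nm fluorescence from cleavage and release of a quenched DNA duplex, coupled with APE1 for strand incision, lower signal meaning inhibition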
T1 sequence (whole entry): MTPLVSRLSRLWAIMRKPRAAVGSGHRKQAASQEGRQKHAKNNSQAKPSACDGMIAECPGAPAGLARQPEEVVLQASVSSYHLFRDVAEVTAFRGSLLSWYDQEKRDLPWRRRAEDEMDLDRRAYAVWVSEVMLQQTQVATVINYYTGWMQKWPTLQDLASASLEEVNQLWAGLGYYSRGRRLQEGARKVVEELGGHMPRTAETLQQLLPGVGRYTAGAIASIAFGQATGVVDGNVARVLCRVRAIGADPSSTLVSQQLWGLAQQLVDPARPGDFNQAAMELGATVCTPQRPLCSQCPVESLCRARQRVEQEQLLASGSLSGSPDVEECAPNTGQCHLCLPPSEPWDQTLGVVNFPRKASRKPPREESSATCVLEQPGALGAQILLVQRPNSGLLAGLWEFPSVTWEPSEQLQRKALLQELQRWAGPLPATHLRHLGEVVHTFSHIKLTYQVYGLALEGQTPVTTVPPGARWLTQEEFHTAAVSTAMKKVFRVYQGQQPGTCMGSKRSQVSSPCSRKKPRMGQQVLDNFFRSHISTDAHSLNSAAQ

[3] = target: Endonuclease 8-like 1 (Homo sapiens) (UniProt Q96FI4);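 further: fluorescence at 594 nm from quenched duplex DNA oligonucleotides released by NEIL1 cleavage and strand separation, reported as reduction of this enzyme activity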
[4] = target: T2, Endonuclease 8-like 2 (Homo sapiens) (UniProt Q969S2);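 further: fluorescence at 594 nm reports NEIL2 cutting and release of a quenched double-stranded DNA oligo substrate, reduced signal read as inhibition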
T2 sequence (whole entry): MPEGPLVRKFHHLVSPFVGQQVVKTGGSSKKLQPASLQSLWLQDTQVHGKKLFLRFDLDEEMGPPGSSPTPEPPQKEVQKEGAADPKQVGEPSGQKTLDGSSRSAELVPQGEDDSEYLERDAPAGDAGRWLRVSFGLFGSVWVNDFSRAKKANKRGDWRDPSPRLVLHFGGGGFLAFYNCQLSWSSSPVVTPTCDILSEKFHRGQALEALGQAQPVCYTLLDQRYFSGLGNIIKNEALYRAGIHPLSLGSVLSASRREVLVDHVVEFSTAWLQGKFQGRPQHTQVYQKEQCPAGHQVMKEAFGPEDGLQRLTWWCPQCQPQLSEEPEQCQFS

[5] = target: T3, Endonuclease III-like protein 1 (Homo sapiens) (UniProt P78549);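 further: enzyme assay tracking NTHL1 cutting and release of a quenched double-stranded DNA oligo substrate, read as fluorescence at 594 nm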
T3 sequence (whole entry): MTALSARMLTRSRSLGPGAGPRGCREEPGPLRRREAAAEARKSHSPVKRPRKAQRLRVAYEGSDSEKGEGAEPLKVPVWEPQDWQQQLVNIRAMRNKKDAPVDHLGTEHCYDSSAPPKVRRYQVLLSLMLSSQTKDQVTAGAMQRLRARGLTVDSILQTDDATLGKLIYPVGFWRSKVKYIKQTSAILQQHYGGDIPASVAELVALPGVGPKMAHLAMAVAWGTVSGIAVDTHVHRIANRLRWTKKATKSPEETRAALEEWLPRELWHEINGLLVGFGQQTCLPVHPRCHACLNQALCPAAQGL

[6] = target: N-glycosylase/DNA lyase (Homo sapiens) (UniProt O15527);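 further: OGG1 cleavage of a quenched duplex DNA oligonucleotide, coupled to APE1 for strand incision, read as fluorescence at 594 nm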
[7] = target: T4, Single-strand selective monofunctional uracil DNA glycosylase (Homo sapiens) (UniProt Q53HV7);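 further: enzymatic SMUG1 assay coupled with APE1, reading fluorescence at 594 nm released when a quenched double-stranded DNA oligonucleotide substrate is cleaved and separated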
T4 sequence (whole entry): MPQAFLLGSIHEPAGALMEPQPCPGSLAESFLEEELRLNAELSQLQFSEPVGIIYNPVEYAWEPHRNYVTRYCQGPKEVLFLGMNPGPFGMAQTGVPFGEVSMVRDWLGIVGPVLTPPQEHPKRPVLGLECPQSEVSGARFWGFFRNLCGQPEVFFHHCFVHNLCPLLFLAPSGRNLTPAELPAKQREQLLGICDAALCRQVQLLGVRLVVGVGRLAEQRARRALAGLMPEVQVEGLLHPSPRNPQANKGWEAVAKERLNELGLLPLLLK

[8] = target: G/T mismatch-specific thymine DNA glycosylase (Homo sapiens) (UniProt Q13569);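 further: human TDG cleavage of quenched duplex DNA oligonucleotides coupled to APE1, strand release read as fluorescence at 594 nm, inhibition of TDG activity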
[9] = target: Uracil-DNA glycosylase (Homo sapiens) (UniProt P13051);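 further: UNG excision on a quenched double-stranded DNA oligo probe, with APE1 added for strand incision and turnover, read as fluorescence at 594 nm as strands separate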
Chain of Uracil-DNA glycosylase (Homo sapiens) (P13051 whole entry): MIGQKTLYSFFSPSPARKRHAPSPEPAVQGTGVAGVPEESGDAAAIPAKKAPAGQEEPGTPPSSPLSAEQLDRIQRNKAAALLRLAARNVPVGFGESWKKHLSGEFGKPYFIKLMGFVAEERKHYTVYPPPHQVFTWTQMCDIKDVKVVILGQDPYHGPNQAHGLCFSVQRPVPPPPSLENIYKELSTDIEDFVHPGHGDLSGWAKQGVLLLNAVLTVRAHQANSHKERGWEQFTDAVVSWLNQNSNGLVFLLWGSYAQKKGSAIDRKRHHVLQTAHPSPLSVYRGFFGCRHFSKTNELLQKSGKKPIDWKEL

Chain of G/T mismatch-specific thymine DNA glycosylase (Homo sapiens) (Q13569 whole entry): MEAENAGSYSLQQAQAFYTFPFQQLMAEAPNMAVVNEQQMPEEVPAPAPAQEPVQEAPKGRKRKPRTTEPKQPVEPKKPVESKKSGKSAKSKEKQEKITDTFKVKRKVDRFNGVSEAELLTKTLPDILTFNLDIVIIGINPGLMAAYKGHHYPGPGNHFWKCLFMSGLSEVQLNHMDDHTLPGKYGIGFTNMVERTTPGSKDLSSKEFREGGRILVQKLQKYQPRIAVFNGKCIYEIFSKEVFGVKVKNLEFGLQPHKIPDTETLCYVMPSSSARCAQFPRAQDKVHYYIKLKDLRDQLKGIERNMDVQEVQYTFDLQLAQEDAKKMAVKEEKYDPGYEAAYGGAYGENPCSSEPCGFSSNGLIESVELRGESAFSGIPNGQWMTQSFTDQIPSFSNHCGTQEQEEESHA
Chain of Endonuclease 8-like 1 (Homo sapiens) (Q96FI4 whole entry): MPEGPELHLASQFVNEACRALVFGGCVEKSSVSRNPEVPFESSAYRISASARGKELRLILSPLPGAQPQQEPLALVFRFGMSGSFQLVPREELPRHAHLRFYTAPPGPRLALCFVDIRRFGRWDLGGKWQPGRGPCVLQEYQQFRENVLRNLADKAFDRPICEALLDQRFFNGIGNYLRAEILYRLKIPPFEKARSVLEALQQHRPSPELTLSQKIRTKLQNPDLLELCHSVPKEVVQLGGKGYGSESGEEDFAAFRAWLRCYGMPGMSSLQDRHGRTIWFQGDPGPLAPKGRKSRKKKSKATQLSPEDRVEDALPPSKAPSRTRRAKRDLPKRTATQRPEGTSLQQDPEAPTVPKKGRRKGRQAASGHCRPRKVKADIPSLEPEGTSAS
Chain of N-glycosylase/DNA lyase (Homo sapiens) (O15527 whole entry): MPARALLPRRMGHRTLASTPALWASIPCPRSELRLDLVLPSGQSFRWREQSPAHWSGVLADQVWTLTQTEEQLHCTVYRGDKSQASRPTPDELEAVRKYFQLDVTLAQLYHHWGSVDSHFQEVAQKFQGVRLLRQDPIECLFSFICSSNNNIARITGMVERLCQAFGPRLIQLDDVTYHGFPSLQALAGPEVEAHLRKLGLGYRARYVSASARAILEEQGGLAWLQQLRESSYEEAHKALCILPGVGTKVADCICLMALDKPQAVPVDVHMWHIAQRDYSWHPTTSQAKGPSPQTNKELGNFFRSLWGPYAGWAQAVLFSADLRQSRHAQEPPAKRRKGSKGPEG
Chain of Methyl-CpG-binding domain protein 4 (Homo sapiens) (O95243 whole entry, the tested form may be a part): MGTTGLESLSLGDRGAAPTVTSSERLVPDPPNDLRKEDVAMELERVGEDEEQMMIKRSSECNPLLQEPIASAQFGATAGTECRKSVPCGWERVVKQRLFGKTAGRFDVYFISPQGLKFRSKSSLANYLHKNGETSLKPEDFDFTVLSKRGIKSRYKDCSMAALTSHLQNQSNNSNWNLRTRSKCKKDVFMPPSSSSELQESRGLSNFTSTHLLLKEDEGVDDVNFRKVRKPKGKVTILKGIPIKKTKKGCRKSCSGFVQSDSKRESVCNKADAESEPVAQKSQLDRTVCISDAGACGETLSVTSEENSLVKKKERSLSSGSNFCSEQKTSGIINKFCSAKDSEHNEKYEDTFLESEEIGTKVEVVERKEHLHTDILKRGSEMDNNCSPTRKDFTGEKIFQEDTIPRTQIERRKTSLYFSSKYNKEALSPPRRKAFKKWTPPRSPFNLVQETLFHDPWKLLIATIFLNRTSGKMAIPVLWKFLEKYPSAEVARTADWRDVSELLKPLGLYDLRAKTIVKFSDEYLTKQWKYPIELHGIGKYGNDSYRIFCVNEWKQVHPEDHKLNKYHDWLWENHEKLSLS

SMILES	inhibition ([1]; Compound Concentration 10.0 uM)	inhibition ([2]; Compound Concentration 10.0 uM)	inhibition ([3]; Compound Concentration 10.0 uM)	inhibition ([4]; Compound Concentration 10.0 uM)	inhibition ([5]; Compound Concentration 10.0 uM)	inhibition ([6]; Compound Concentration 10.0 uM)	inhibition ([7]; Compound Concentration 10.0 uM)	inhibition ([8]; Compound Concentration 10.0 uM)	inhibition ([9]; Compound Concentration 10.0 uM)	inhibition ([1]; Compound Concentration 1.0 uM)	inhibition ([2]; Compound Concentration 1.0 uM)	inhibition ([5]; Compound Concentration 1.0 uM)	inhibition ([6]; Compound Concentration 1.0 uM)	inhibition ([7]; Compound Concentration 1.0 uM)	inhibition ([8]; Compound Concentration 1.0 uM)	inhibition ([9]; Compound Concentration 1.0 uM)	inhibition ([3]; Compound Concentration 1.0 uM)	inhibition ([4]; Compound Concentration 1.0 uM)
C[C@@H]1C[C@H](C)CN(c2ncc(Cl)c(Nc3ccc4c(c3)cc(OC(C)(C)C(=O)O)c(=O)n4C)n2)C1	73.2%	18.2%	-5.89%	8.19%	-6.88%	19.3%	17.6%	69.6%	7.75%									
Cc1cc(OCCC(C)(C)O)cc(C)c1-c1ccc(F)c2c1CC[C@H]2Oc1ccc2c(c1)OC[C@H]2CC(=O)O	64.2%	10%	-2.26%	-1.76%	-4.57%	78.7%	18.5%	61.7%	1.96%									
CCCCN(Cc1ccccc1)C(=O)c1ccc(S(=O)(=O)Nc2ccccc2)cc1	-4.89%	28.5%	-9.37%	-10%	2.88%	15.6%	26.3%	61.1%	2.05%									
CC(C)C[C@H](NC(=O)c1cc2ccccc2s1)C(=O)N1CCN(C(=O)[C@H](CO)NS(=O)(=O)c2ccc(Cl)cc2Cl)CC1	-8.27%	4.25%	7.86%	-3.66%	13.8%	-7.14%	17.8%	-2.2%	-1.45%									
CC1(C)CCC(C)(C)c2cc(NC(=O)c3ccc(C(=O)O)cc3)ccc21	58.9%	0.879%	-4.53%	4.36%	1.34%	31.6%	7.75%	47.2%	0.0471%									
Cc1cc(OC2CCS(=O)(=O)CC2)cc(C)c1-c1cccc(COc2ccc(C(=O)O)c(F)c2)c1	67.4%	8.53%	-1.96%	-1.51%	-5.23%	31.5%	23.6%	100%	6.33%									
CN1CCN(C(=O)C(C)(C)c2ccc(C(=O)Nc3cn4cc(-c5ccncc5)ccc4n3)cc2)CC1	60.8%	32.7%	1.07%	-4.06%	9.89%	0.918%	18.7%	60.5%	6.5%	-4.56%	33.1%	4.27%	-1.57%	14.8%	36.3%	0.265%		
CNC(=N)NCCC[C@H](NC(=O)[C@H](CC(C)C)NC(=O)NNC(=O)[C@H](Cc1ccccc1)NC(=O)[C@H](CO)NC(=O)[C@H](CC(N)=O)NC(=O)[C@@H](Cc1cccnc1)NC(=O)[C@H](N)Cc1ccc(O)cc1)C(=O)NCC(N)=O (H-[dY][d3Pal]NSF[azaGly]L[Arg(Me)]G-NH2)	60.6%	-0.706%	-0.139%	-2.53%	0.685%	9.57%	25.5%	62.4%	7.1%									
Cc1ccccc1Oc1cc(-n2c(=O)cc(C(F)(F)F)[nH]c2=O)c2ccccc2c1Cl	68.2%	0.715%	7.74%	-1.25%	-1.29%	50.6%	29.1%	54.4%	-2.65%									
OCCn1cc(-c2ccc3c(c2)CCC3=NO)c(-c2ccncc2)n1										48.6%	-3.03%	1.48%	1.67%	16.9%	25.9%	2.27%	0.138%	-7.84%
